From the SangsterLogP compilation
Where a SMILES comes first, the peptide text is derived from it.

Key:
[1] = method code SF-RC, from DOI: 10.1016/j.nucmedbio.2016.01.003, PMID: 27067043; conditions: pH 7.4
[2] = method code SF-RC, from DOI: 10.1016/j.bmc.2015.06.036, PMID: 26145817; conditions: pH 7.4
[3] = method code SF-AS, from DOI: 10.1016/j.bmc.2007.10.035, PMID: 18029186; conditions: pH 7.4
[4] = method code SF-HPLC, from DOI: 10.1002/jps.2600800905, PMID: 1800703
[5] = method code SF-HPLC, from DOI: 10.1016/j.ejmech.2003.12.002, PMID: 15051170
[6] = method code SF-AS, from PMID: 1586384
[7] = method code SF, from DOI: 10.1016/j.nucmedbio.2007.12.009, PMID: 18355686; conditions: pH 7.4
[8] = not given; remark: listed apart in the source
[9] = method code SF-AS, from DOI: 10.1016/j.arabjc.2011.11.013
[10] = method code SF-RC, from DOI: 10.1002/jlcr.1076; conditions: pH 7.4
[11] = method code SF-GR, from DOI: 10.1016/s0022-3565(25)32611-x, PMID: 7230009
[12] = method code SF-AS, from DOI: 10.1016/s0022-3565(25)38749-5, PMID: 8182532; conditions: pH 7.4
[13] = method code SF-AS, from DOI: 10.1016/s0022-5347(24)07568-2, PMID: 4149453; conditions: pH 7.5
[14] = not given; remark: listed apart in the source
[15] = method code RP-TLC, from DOI: 10.1016/s0021-9673(03)00617-4, PMID: 12830921
[16] = method code SF-HPLC, from DOI: 10.1016/0378-5173(89)90313-x; conditions: pH 7.4
[17] = method code SF-AS, from DOI: 10.1248/bpb1978.7.120, PMID: 6427444
[18] = not given; remark: listed apart in the source
[19] = method code SF-RC, from DOI: 10.1016/j.bmc.2006.11.022, PMID: 17293116; conditions: pH 7.4
[20] = method code SF-RC, from DOI: 10.1016/0361-9230(85)90153-4, PMID: 2413968
[21] = not given; remark: listed apart in the source
[22] = method code SF-RC, from DOI: 10.1016/j.nucmedbio.2005.06.001, PMID: 16253804; conditions: pH 7.4
[23] = method code SF-HPLC, from DOI: 10.1016/j.bmc.2009.01.040, PMID: 19208447; conditions: pH 7.0
[24] = method code SF, from DOI: 10.1002/ps.2780350215
[25] = method code SF-AS, from DOI: 10.1016/s0014-827x(98)00024-x, PMID: 9679281
[26] = method code SF-RC, from DOI: 10.1016/j.nucmedbio.2003.12.003, PMID: 15093819; conditions: pH 7.0

CC(C)NCC(COc1cccc2ccccc12)OC(=O)C(C)C (stereo not drawn)
logP: 3.52

C=CC(=O)NCCCCC(NC(=O)OCc1ccccc1)C(=O)N1CCN(c2ccccc2Cl)CC1 (stereo not drawn)
logD [1]: 3

CCN(CCCCF)c1cc(C)nc2c(-c3ccc(Cl)cc3Cl)c(C)nn12
logD [2]: 2.81

CC(=O)OCC1OC(OCCN(C)C(=O)n2ccnc2[N+](=O)[O-])C(OC(C)=O)C(OC(C)=O)C1OC(C)=O (stereo not drawn)
logD [3]: -0.98

CC[C@H](C)C(=O)O[C@H]1CCC=C2C=C[C@H](C)[C@H](CC[C@@H]3C[C@@H](O)CC(=O)O3)[C@H]21
logD ([4]; pH 7.0): 3.85

COC(=O)C(C)NP(=O)(OCC1C=CC(n2cc(C)c(=O)[nH]c2=O)O1)Oc1cc(Cl)ccc1Cl (stereo not drawn)
logP [5]: 1.41

CC(=O)OC(C)OC(=O)c1cn2c3c(c(N4CCN(C)CC4)c(F)cc3c1=O)OCC2C (stereo not drawn)
logP [6]: 0.26

CC(=O)N(Cc1ccccc1OCCF)c1cnccc1Oc1ccccc1
logD [7]: 2.99

CN1CCN(C(COCc2cc(C(F)(F)F)cc(C(F)(F)F)c2)c2ccccc2)CC1 (stereo not drawn)
logP [8]: 3.2

CCC(C)(C)C(=O)O[C@H]1C[C@@H](C)C=C2C=C[C@H](C)[C@H](CC[C@@H](O)C[C@@H](O)CC(=O)O)[C@H]21 (relative stereo)
logD ([4]; pH 2.0): 4.47

O=C(CNc1ccc([N+](=O)[O-])cc1)Nc1ccc(Cl)cc1C(=O)c1ccccc1
logP [9]: 4.68

CCN(CCOCCF)c1cc(C)nc2c(-c3ccc(Cl)cc3Cl)c(C)nn12
logD [2]: 3.8

COc1ccc2c(c1)C1(C)CCC3c4ccc(O)c(I)c4CCC3C1C2 (stereo not drawn)
logD [10]: 2.5

CC1(C)[C@@H](O)C[C@H]2[C@](C)(O)[C@@H]3CC[C@@H]4[C@@H](O)[C@@]3(C[C@@H](O)[C@@]21O)C[C@@]4(C)O
logP [11]: 0.27

CC(C)CCC(=O)CC1c2ccccc2C(=O)N1c1ccc2ccc(Cl)nc2n1 (stereo not drawn)
logD [12]: 4.8

CCCCCCCCCCOc1ccc(C(=O)Nc2cc(C(=O)NCCCC)ccc2SC)cc1
logD [12]: 5.2

COC(=O)CC[C@H](NC(=O)c1cc(Cl)c(N(C)Cc2cnc3nc(N)nc(N)c3n2)c(Cl)c1)C(=O)OC
logD [13]: 1.69

CC1CC2C3CCC4=CC(=O)CCC4C3CCC2(C)C1C(=O)CO (stereo not drawn)
logP [14]: 4.02

CC(C)NCC(COc1cccc2ccccc12)OC(=O)C1CC1 (stereo not drawn)
logP: 3.68

CCC12C=C(C(=O)OCCCO)n3c4c(c5ccccc53)CCN(CCC1)C42 (stereo not drawn)
logP [15]: 3.89

Nc1ccc(S(=O)(=O)NCC(=O)Nc2ccc(Cl)cc2C(=O)c2ccccc2)cc1
logP [9]: 3.24

CN1C=CCC(C(=O)NC2CCC(OC(=O)CCCc3ccc(N(CCCl)CCCl)cc3)CC2)=C1 (stereo not drawn)
logD [16]: 2.85

CO[C@@]12[C@H](COC(N)=O)C3=C(C(=O)C(C)=C(N)C3=O)N1C[C@H]1[C@@H]2N1C(=O)c1ccccc1
logP [17]: 1.89

COC(=O)CN1CCN(C(COCc2cc(C(F)(F)F)cc(C(F)(F)F)c2)c2ccccc2)CC1 (stereo not drawn)
logP [8]: 3.11

CC#CC1(O)CC[C@H]2[C@@H]3CCC4=CC(=O)CCC4=C3C(c3ccc(N(C)C)cc3)C[C@@]21C (stereo partly drawn)
logP [18]: 4.69

CC1(C)[C@H]2O[C@H]2[C@@H]2[C@]1(O)[C@H](O)[C@@H](O)C13C[C@@](C)(O)[C@@H](CC[C@@]1(O)[C@@]2(C)O)[C@@H]3O
logP [11]: -0.57

COc1ccc2nc(-c3ccc4nc(-c5ccc(N)cc5)sc4c3)sc2c1
logD [19]: 1.56

CCOC(=O)CC[C@H](NC(=O)c1ccc(N(C)Cc2cnc3nc(N)nc(N)c3n2)cc1)C(=O)OCC
logD [13]: 0.98

CC(C)C[C@H](NC(=O)[C@@H]1CCCN1C(=O)[C@@H](N)Cc1ccc(O)cc1)C(=O)NCC(N)=O (H-YPLG-NH2)
logP [20]: 0.06

CC1CC2C3CCC4=CC(=O)CCC4C3CCC2(C)C1C(=O)CF (stereo not drawn)
logP [14]: 4.66

COC(=O)C(C)NP(=O)(OCC1C=CC(n2cc(C)c(=O)[nH]c2=O)O1)Oc1ccc(N(C)C)cc1 (stereo not drawn)
logP [5]: 0.76

COc1cc2c(Nc3ccc(Cl)cc3F)ncnc2cc1OCCCN1CCOCC1
logP [21]: 3.6

CNc1ccc(C=Cc2ccc(OCCOCCOCCOCCF)cc2)cc1
logD [22]: 2.05

CC(C(=O)OCC(O)C(O)C(O)C(O)C=O)c1cccc(C(=O)c2ccccc2)c1 (stereo not drawn)
logD [23]: 1.26

CCCCn1c(C)cc(=O)c(C(=O)Nc2c(CC)cccc2CC)c1C
logP [24]: 2.52

S=c1[nH]nc(Cn2ccc3ccccc32)n1-c1cccc2ccccc12
logP [25]: 3.12

NC(=O)CC[C@@H]1NC(=O)[C@H](Cc2ccccc2)NC(=O)[C@H](Cc2ccc(O)cc2)NC(=O)[C@@H](N)CSSC[C@@H](C(=O)N2CCC[C@H]2C(=O)N[C@@H](CCCN=C(N)N)C(=O)NCC(N)=O)NC(=O)[C@H](CC(N)=O)NC1=O
logP [20]: -2.15

CCC(C)N(C)C(=O)c1cc2ccccc2c(-c2ccccc2Cl)n1 (stereo not drawn)
logD [7]: 4

O=C(NCCc1ccc(S(=O)(=O)NC2CCCCC2)cc1)c1cc(I)ccc1OCCF
logD [26]: 2.15

CO[C@@]12[C@H](COC(N)=O)C3=C(C(=O)C(C)=C(N)C3=O)N1C[C@H]1[C@@H]2N1Cc1ccccc1 (stereo partly drawn)
logP [17]: 1.59

CNc1ccc(-c2nc3ccc(-c4nc5ccc(F)cc5s4)cc3s2)cc1
logD [19]: 2.48

CCC12C=C(C(=O)OCCO)n3c4c(c5ccccc53)CCN(CCC1)C42 (stereo not drawn)
logP [15]: 3.62

CC(=O)NC1C(OCCN(C)C(=O)Cn2ccnc2[N+](=O)[O-])OC(COC(C)=O)C(OC(C)=O)C1OC(C)=O (stereo not drawn)
logD [3]: -1.29

Cc1[nH]c2ccccc2c1Cc1nnc(Nc2cccc3ccccc23)s1
logP [25]: 3.78

COc1ccc2c(c1)C1(C)CCC3c4cc(I)c(O)cc4CCC3C1C2 (stereo not drawn)
logD [10]: 1.8

CC(C(=O)OCC(O)C(O)C(O)C(O)CO)c1cccc(C(=O)c2ccccc2)c1 (stereo not drawn)
logD [23]: 0.78

CN1C=CCC(C(=O)NCCOC(=O)CCCc2ccc(N(CCCl)CCCl)cc2)=C1
logD [16]: 2.16

CCc1cccc(CC)c1NC(=O)c1c(C)n(CCc2ccccc2)c(C)c(Br)c1=O
logP [24]: 3.63

COc1cc2c(Nc3ccc(Cl)cc3F)ncnc2cc1OCCCN1CCN(C)CC1
logP [21]: 3.3

CC(=O)OCOC(=O)c1cn2c3c(c(N4CCN(C)CC4)c(F)cc3c1=O)OCC2C (stereo not drawn)
logP [6]: 0.02

O=C(NCCc1ccc(S(=O)(=O)NC2CCCCC2)cc1)c1cc(Cl)ccc1OCCF
logD [26]: 2.09

CC(=O)[C@@]1(C)CC[C@H]2[C@@H]3CCC4=CC(=O)CCC4=C3CC[C@@]21C
logP [18]: 4.34

CNc1ccc(C=Cc2ccc(OCCOCCOCCOCCOCCF)cc2)cc1
logD [22]: 2.28
